Test results from ChEMBL document CHEMBL1201862, “PubChem BioAssay data set” (2004).
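All cell lines were grown in 96-well plates and treated with compound for 48 hours. GI50 marks 50% less growth.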 Active and inactive are the calls of the source. No stated cut-off is given here; in the data, active = GI50 up to about 1.1 µM and inactive = higher.

Key:
Assay in all cases: NCI tumour cell line growth inhibition, 48 h
ACHN = test system: ACHN
SK-MEL-2 = test system: SK-MEL-2
HCC 2998 = test system: HCC 2998
K562 = test system: K562
HT-29 = test system: HT-29
HOP-62 = test system: HOP-62
PC-3 = test system: PC-3
Hs-578T = test system: Hs-578T
RPMI-8226 = test system: RPMI-8226
IGROV-1 = test system: IGROV-1
SF-268 = test system: SF-268
786-0 = test system: 786-0
SNB-75 = test system: SNB-75
BT-549 = test system: BT-549
SF-539 = test system: SF-539
UACC-62 = test system: UACC-62
UO-31 = test system: UO-31
SNB-19 = test system: SNB-19
CAKI-1 = test system: CAKI-1

Measured: GI50

CCOC(=O)CCC(C(=O)OCC)n1nc2ccc(Nc3c(C)[n+]([O-])c4cc(F)c(OCC)cc4[n+]3[O-])cc2n1 (stereo not given)
inactive: ACHN 40.2 µM | SK-MEL-2 50.2 µM | HCC 2998 35 µM | K562 > 100 µM | HT-29 > 100 µM | HOP-62 17.5 µM | PC-3 37.2 µM | Hs-578T 26.2 µM | RPMI-8226 > 100 µM | IGROV-1 78.5 µM | SF-268 14 µM | 786-0 25.3 µM | SNB-75 15.8 µM | BT-549 34 µM | SF-539 22.5 µM | UACC-62 36.3 µM | UO-31 52.4 µM | SNB-19 31.9 µM | CAKI-1 > 100 µM

Cc1cc(C)n(CN(Cn2nc(C)cc2C)C2CCCCC2)n1
inactive: ACHN 23.4 µM | SK-MEL-2 17.6 µM | HCC 2998 14.6 µM | HT-29 21.1 µM | HOP-62 31.3 µM | PC-3 22.9 µM | Hs-578T > 100 µM | RPMI-8226 18.6 µM | IGROV-1 20.1 µM | SF-268 33 µM | 786-0 23.1 µM | SNB-75 17.1 µM | BT-549 23.3 µM | SF-539 15.7 µM | UACC-62 21.5 µM | UO-31 20.8 µM | SNB-19 85.1 µM | CAKI-1 31.5 µM

Cc1cc(N(CCC#N)CCC#N)ccc1C(/N=N/c1ccc([N+](=O)[O-])cc1)=N\NC(=O)c1cc(Cl)ccc1C(=O)c1ccccc1
inactive: ACHN 12.2 µM | SK-MEL-2 11.1 µM | HCC 2998 13 µM | K562 9.84 µM | HT-29 10.4 µM | HOP-62 18.4 µM | PC-3 6.5 µM | Hs-578T 17.4 µM | RPMI-8226 11 µM | IGROV-1 3.56 µM | SF-268 6.07 µM | 786-0 7.64 µM | SNB-75 24.6 µM | BT-549 19 µM | UACC-62 11.1 µM | UO-31 10.1 µM | SNB-19 46.7 µM | CAKI-1 12.5 µM

CSc1nc(=O)c(C#N)c(-c2ccccc2)n1C1OC(COC(C)=O)C(OC(C)=O)C(OC(C)=O)C1OC(C)=O (stereo not given)
inactive: ACHN > 100 µM | SK-MEL-2 > 100 µM | HCC 2998 > 100 µM | K562 > 100 µM | HT-29 > 100 µM | HOP-62 > 100 µM | PC-3 52.2 µM | Hs-578T 39.8 µM | RPMI-8226 > 100 µM | IGROV-1 > 100 µM | SF-268 > 100 µM | 786-0 82.6 µM | SNB-75 42.5 µM | BT-549 > 100 µM | SF-539 > 100 µM | UACC-62 > 100 µM | UO-31 39.2 µM | SNB-19 > 100 µM | CAKI-1 > 100 µM

O=C(/C=C/c1ccccc1)Nc1ccccc1SCCCCl
inactive: ACHN 20 µM | SK-MEL-2 22.2 µM | HCC 2998 21.6 µM | K562 9.66 µM | HT-29 7.94 µM | HOP-62 15 µM | PC-3 9.91 µM | Hs-578T 6.81 µM | RPMI-8226 27.4 µM | IGROV-1 1.18 µM | SF-268 14.4 µM | 786-0 13.4 µM | SNB-75 17.7 µM | BT-549 8.11 µM | SF-539 8.57 µM | UACC-62 6.9 µM | UO-31 7.48 µM | SNB-19 19.1 µM | CAKI-1 5.79 µM

O=C(Nc1ccccc1)N(CCCCN(Cc1ccccc1)C(=O)Nc1ccccc1)Cc1ccccc1
inactive: ACHN > 100 µM | SK-MEL-2 > 100 µM | HCC 2998 > 100 µM | K562 30.8 µM | HT-29 74.5 µM | HOP-62 > 100 µM | PC-3 > 100 µM | Hs-578T > 100 µM | RPMI-8226 > 100 µM | IGROV-1 > 100 µM | SF-268 > 100 µM | 786-0 95.3 µM | SNB-75 27.7 µM | BT-549 > 100 µM | UACC-62 > 100 µM | UO-31 40 µM | SNB-19 38 µM | CAKI-1 > 100 µM

COc1ccc(C2c3cc4c(cc3C(O)C3CCC(=O)N23)OCO4)cc1 (stereo not given)
inactive: ACHN > 100 µM | SK-MEL-2 > 100 µM | HCC 2998 > 100 µM | K562 > 100 µM | HT-29 > 100 µM | HOP-62 > 100 µM | PC-3 > 100 µM | Hs-578T > 100 µM | RPMI-8226 > 100 µM | IGROV-1 > 100 µM | SF-268 > 100 µM | 786-0 > 100 µM | SNB-75 82.2 µM | BT-549 96.4 µM | SF-539 > 100 µM | UACC-62 > 100 µM | UO-31 > 100 µM | SNB-19 > 100 µM | CAKI-1 > 100 µM
